Measured values: patent EP3057951B1, “METHYLENE LINKED QUINOLINYL MODULATORS OF ROR-GAMMA-T” (Janssen Pharmaceutica NV, priority 2013, dated 2015)
Structures can show the parent of a compound that is named as a salt. Where two headings read alike, the source gives them in different places.

What was measured:
[1] = target: T1, wild type human RORγt LBD (Homo sapiens, UniProt P51449); assay: RORγt (LBD) Reporter Assay (GAL4-luciferase, HEK293T cells); type: cell-based; settings: for RORγt (LBD) Reporter Assay, % inhibition @ 6 µM: 6 µM compound concentration; for inhibition at 6 µM: HEK-293T, read-out: RORγt (LBD) Reporter Assay, % inhibition @ 6 µM, 6 µM compound concentration
T1 construct: expressed in transfected cells; host or cells: HEK293T
T1 sequence (P51449 258-518): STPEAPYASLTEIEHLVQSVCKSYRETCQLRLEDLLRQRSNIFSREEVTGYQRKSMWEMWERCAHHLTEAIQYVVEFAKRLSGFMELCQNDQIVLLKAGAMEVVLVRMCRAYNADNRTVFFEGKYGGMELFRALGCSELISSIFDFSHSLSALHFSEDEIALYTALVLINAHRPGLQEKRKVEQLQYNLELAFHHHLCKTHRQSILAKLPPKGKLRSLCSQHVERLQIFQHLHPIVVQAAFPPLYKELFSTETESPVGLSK

[2] = target: T2, wild type human RORγt ligand binding domain (RORyt LBD) (Homo sapiens, UniProt P51449); assay: RORγt ThermoFluor assay (thermal shift, binding affinity KD)
T2 construct: His-tag (N); TurboTEV protease cleavage site (ENLYFQG) (N); made in house; host or cells: E. coli (pHIS1, modified pET vector)
T2 sequence (P51449 258-518): T1 sequence (P51449 258-518)

[3] = HEK293T cells, value after the comma with ∼, > or < could not be included in the average

| SMILES | RORγt (LBD) Reporter Assay, % inhibition @ 6 µM [1] | IC50 [1, 3] | Kd [2] | inhibition at 6 µM [1] | IC50 ([1]; HEK293T cells) | inhibition at 6 µM ([1]; HEK293T cells) | RORγt (LBD) Reporter Assay, % inhibition @ 6 µM ([1]; HEK293T cells) |
| --- | --- | --- | --- | --- | --- | --- | --- |
| CC(=O)N1CCC(C(O)(c2ccc(C(F)(F)F)nc2)c2cc(C)c3nc(C#N)c(Cc4ccc(-n5cccn5)cc4)c(C#N)c3c2)CC1 (single isomer, unassigned) [Example 79c, 3-(4-(1H-Pyrazol-1-yl)benzyl)-6-((1-acetylpiperidin-4-yl)(hydroxy)(6(trifluoromethyl)pyridin-3-yl)methyl)-8-methylquinoline-2,4-dicarbonitrile] | 103% | 230 nM | 45 nM |  |  |  |  |
| COc1nc2ccc(C(O)(c3ccc(C#N)cc3)c3cncn3C)cc2c(C#N)c1Cc1ccc(-n2cncn2)cc1 (single isomer, unassigned) [Example 15c, 3-(4-(1H-1,2,4-Triazol-1-yl)benzyl)-6-((4-cyanophenyl)(hydroxy)(1-methyl-1H-imidazol-5-yl)methyl)-2-methoxyquinoline-4-carbonitrile] | 97% | 28 nM | 17 nM |  |  |  |  |
| COc1nc2ccc(C(O)(c3cnnn3C)c3cnc(C)n3C)cc2c(C#N)c1Cc1ccc(F)cc1 (single isomer, unassigned) [Example 66c, 6-((1,2-Dimethyl-1H-imidazol-5-yl)(hydroxy)(1-methyl-1H-1,2,3-triazol-5-yl)methyl)-3-(4-fluorobenzyl)-2-methoxyquinoline4-carbonitrile] | 90% | 2.6 nM | 2.2 nM |  |  |  |  |
| Cn1cc(-c2nc3ccc(C(O)(c4ccc(C(F)(F)F)nc4)c4cncn4C)cc3c(C#N)c2Cc2ccccc2)cn1 (stereo not drawn) [Example 112a, 3-Benzyl-6-(hydroxy(1-methyl-1H-imidazol-5-yl)(6-(trifluoromethyl)pyridin-3-yl)methyl)-2-(1-methyl-1H-pyrazol-4-yl)quinoline-4-carbonitrile•TFA] |  | 1000 nM | 6600 nM | 91% |  |  |  |
| Cc1cc(C(O)(c2ccc(Cl)cc2)c2cncn2C)cc2c(Cl)c(Cc3ccc(-n4cccn4)cc3)c(S(C)(=O)=O)nc12 (stereo not drawn) [Example 142, {4-Chloro-8-methyl-2-(methylsulfonyl)-3-[4-(1H-pyrazol-1-yl)benzyl]quinolin-6-yl}(4-chlorophenyl)(1-methyl-1H-imidazol-5-yl)methanol] |  |  | 1500 nM |  | 1600 nM | 87% |  |
| Cn1cncc1C(O)(c1ccc(C(F)(F)F)nc1)c1ccc2nc(C(F)(F)F)c(Cc3ccccc3)c(C#N)c2c1 (single isomer, unassigned) [Example 108b, 3-Benzyl-6-(hydroxy(1-methyl-1H-imidazol-5-yl)(6-(trifluoromethyl)pyridin-3-yl)methyl)-2-(trifluoromethyl)quinoline-4-carbonitrile] | 55% | 1100 nM | 1.2 nM |  |  |  |  |
| Cn1cncc1C(O)(c1ccc(C(F)(F)F)nc1)c1ccc2nc(N3CC(O)C3)c(Cc3ccc(-n4cccn4)cc3)c(Cl)c2c1 (single isomer, unassigned) [Example 134b, 1-(4-Chloro-6-{hydroxy(1-methyl-1H-imidazol-5-yl)[6-(trifluoromethyl)pyridin-3-yl]methyl}-3-[4-(1H-pyrazol-1-yl)benzyl]quinolin-2-yl)azetidin-3-ol] |  |  | 220 nM |  | 420 nM | 101% |  |
| COc1nc2ccc(C(O)(c3ccc(F)cc3)C3CCN(C(C)=O)CC3)cc2c(Cl)c1Cc1ccc(-n2cccn2)cc1 (single isomer, unassigned) [Example 157b, 1-(4-((3-(4-(1H-Pyrazol-1-yl)benzyl)4-chloro-2-methoxyquinolin-6-yl)(4-fluorophenyl)(hydroxy)methyl)piperidin-1-yl)ethanone] |  |  | 1.7 nM |  | 34 nM | 102% |  |
| COc1nc2ccc(C(O)(c3ccc(C)nc3C)c3cnnn3C)cc2c(Cl)c1Cc1ccc(N(C)C)cc1 (single isomer, unassigned) [Example 24c, (4-Chloro-3-(4-(dimethylamino)benzyl)-2-methoxyquinolin-6-yl)(2,6-dimethylpyridin-3-yl)(1-methyl-1H-1,2,3-triazol-5-yl)methanol] | 97% | 25 nM | 0.32 nM |  |  |  |  |
| Cn1cc(-c2nc3ccc(C(O)(c4ccc(C(F)(F)F)nc4)c4cncn4C)cc3c(Cl)c2Cc2ccccc2)cn1 (single isomer, unassigned) [Example 111c, (3-Benzyl-4-chloro-2-(1-methyl-1H-pyrazol-4-yl)quinolin-6-yl)(1-methyl-1H-imidazol-5-yl)(6-(trifluoromethyl)pyridin-3-yl)methanol] | 92% | ~5000 nM | 22000 nM |  |  |  |  |
| COc1nc2ccc(C(O)(c3ccc(C#N)cc3)c3cncn3C)cc2c(Cl)c1Cc1ccc(-n2cncn2)cc1 (stereo not drawn) [Example 14a, 4-((3-(4-(1H-1,2,4-Triazol-1-yl)benzyl)4-chloro-2-methoxyquinolin-6-yl)(hydroxy)(1-methyl-1H-imidazol-5-yl)methyl)benzonitrile] |  | 42 nM | 17 nM | 105% |  |  |  |
| COc1nc2ccc(C(O)(c3cccnc3)c3ccc(Cl)c(Cl)c3)cc2c(Cl)c1Cc1ccc(-n2cccn2)cc1 (single isomer, unassigned) [Example 161c, (3-(4-(1H-Pyrazol-1-yl)benzyl)-4-chloro-2-methoxyquinolin-6-yl)(3,4-dichlorophenyl)(pyridin-3-yl)methanol] |  |  | 11 nM |  | 78 nM |  | 102% |
| COc1nc2ccc(C(O)(c3sc(C)nc3C)c3cnnn3C)cc2cc1Cc1ccc(C(F)(F)F)cc1 (racemic) [Example 92a, (2,4-Dimethylthiazol-5-yl)(2-methoxy-3-(4-(trifluoromethyl)benzyl)quinolin-6-yl)(1-methyl-1H-1,2,3-triazol-5-yl)methanol] |  | 79 nM | 92 nM | 101% |  |  |  |
| COc1nc2ccc(C(O)(c3cncn3C)C3CCOCC3)cc2c(Cl)c1Cc1ccc(-n2cccn2)cc1 (single isomer, unassigned) [Example 1b, (3-(4-(1H-Pyrazol-1-yl)benzyl)-4-chloro-2-methoxyquinolin-6-yl)(1-methyl-1H-imidazol-5-yl)(tetrahydro-2H-pyran-4-yl)methanol] |  | 100 nM | 43 nM | 99% |  |  |  |
| COc1nc2ccc(C(O)(c3ccc(Cl)cc3)c3cncn3C)cc2c(C#N)c1Cc1ccc(C(F)(F)F)cc1 (single isomer, unassigned) [Example 55c, 6-((4-Chlorophenyl)(hydroxy)(1-methyl-1H-imidazol-5-yl)methyl)-2-methoxy-3-(4-(trifluoromethyl)benzyl)quinoline-4-carbonitrile] | 100% | 93 nM | 4.5 nM |  |  |  |  |
| COc1nc2ccc(C(O)(c3sc(C)nc3C)c3cnnn3C)cc2cc1Cc1ccc(C(F)(F)F)cc1 (single isomer, unassigned) [Example 92c, (2,4-Dimethylthiazol-5-yl)(2-methoxy-3-(4-(trifluoromethyl)benzyl)quinolin-6-yl)(1-methyl-1H-1,2,3-triazol-5-yl)methanol] | 96% | 30 nM | 19 nM |  |  |  |  |
| COc1c(Cc2ccccc2)c(C(F)(F)F)nc2ccc(C(O)(c3ccccn3)c3cncn3C)cc12 (racemic) [Example 98a, (3-Benzyl-4-methoxy-2-(trifluoromethyl)quinolin-6-yl)(1-methyl-1H-imidazol-5-yl)(pyridin-2-yl)methanol•TFA] |  | 830 nM | 590 nM | 101% |  |  |  |
| COc1nc2ccc(C(O)(c3ccc(F)cc3)C3CCN(C(C)=O)CC3)cc2c(Cl)c1Cc1ccc(F)cc1 (single isomer, unassigned) [Example 51c, 1-(4-((4-Chloro-3-(4-fluorobenzyl)-2-methoxyquinolin-6-yl)(4-fluorophenyl)(hydroxy)methyl)piperidin-1-yl)ethanone] | 4% | > 6000 nM | 200 nM |  |  |  |  |
| COc1nc2ccc(C(O)(c3ccc(C)nc3C)c3cnnn3C)cc2c(C#N)c1Cc1ccc(C(F)(F)F)nc1 (stereo not drawn) [Example 41a, 6-((2,6-Dimethylpyridin-3-yl)(hydroxy)(1-methyl-1H-1,2,3-triazol-5-yl)methyl)-2-methoxy-3-((6-(trifluoromethyl)pyridin-3-yl)methyl)quinoline-4-carbonitrile] |  | 24 nM | 2.8 nM | 99% |  |  |  |
| COc1nc2ccc(C(O)(c3sc(C)nc3C)c3cnnn3C)cc2cc1Cc1ccc(C(F)(F)F)cc1 (single isomer, unassigned) [Example 92b, (2,4-Dimethylthiazol-5-yl)(2-methoxy-3-(4-(trifluoromethyl)benzyl)quinolin-6-yl)(1-methyl-1H-1,2,3-triazol-5-yl)methanol] |  | 2800 nM | 2000 nM | 79% |  |  |  |
| COc1nc2ccc(C(O)(c3ccc(F)cc3)C3CCN(C(C)=O)CC3)cc2c(Cl)c1Cc1ccc(-n2cccn2)cc1 (stereo not drawn) [Example 157a, 1-(4-((3-(4-(1H-Pyrazol-1-yl)benzyl)4-chloro-2-methoxyquinolin-6-yl)(4-fluorophenyl)(hydroxy)methyl)piperidin-1-yl)ethanone] |  |  | 3.9 nM |  | ~7 nM | 93% |  |
